In brackets after ≈: the same amount, converted by molar mass. Like-named read-outs stand apart in the source and are kept apart here. Non-standard residues stand in square brackets, D forms with d. Residues, ends and D or L forms follow the SMILES beside them. No end group written: not given here.
What was measured:
cancer cell lines = assay: Anti-cancer assays, MTT, summary over the cancer cell lines; assay type: cell-based; conditions: X = preferred
in vitro [1] = assay type: cell-based, human; conditions: human, human red blood cells
in vitro [2] = conditions: human, WI38 normal lung fibroblast cells
[3] = system: Escherichia coli ATCC 25922; assay: Antimicrobial assay I, modified protocol (tryptic soy broth), MBC; conditions: minimum bactericidal concentration, Table 4
Experimental: (§3) The preparation of all media, stock solutions, and dilutions took place in a laminar flow hood to prevent contamination. Bacterial cells were freshly grown on antibiotic medium 2 agar slants (pH 7.0 at 25° C.). Bacteria were suspended and diluted in antibiotic medium 3 to about 10^4 cfu/ml and used as the inoculum. Sample solutions (100 μl/well) were added to plates according to the plate layout. Inoculum (100 μl/well) was added to achieve a final concentration of 5×10^3 cfu/ml. Negative controls received 100 μl saline and 100 μl growth medium. Positive controls received 100 μl saline and 100 μl inoculum. Bacterial plates were incubated at 37° C. for 24 hours.
(§4) However, the data for Table 4 were obtained with a modified protocol wherein the medium was tryptic soy broth, inocolum strength was approximately 10^4 CFU per ml, and values determined were minimum bactericidal concentrations (MBC) or minimum fungicidal concentrations (MFC).
(§5) MBC or MFC values are in μg/mL. E. coli is Escherichia coli ATCC accession number 25922; P. aerug is Pseudomonas aeruginosa ATCC accession number 27853, S. aur. is Stapholococcus aureus ATCC accession number 25923; Candida is Candida albicans ATCC accession number 10231.

[4] = system: Pseudomonas aeruginosa ATCC 27853; assay: as above; conditions: minimum bactericidal concentration, Table 4
[5] = system: Stapholococcus aureus ATCC 25923; assay: as above; conditions: minimum bactericidal concentration, Table 4
Experimental: as §3, §4, §5

[6] = system: Candida albicans ATCC 10231; assay: Antimicrobial assay I, modified protocol (tryptic soy broth), MFC; conditions: minimum fungicidal concentration, Table 4
[7] = system: Pseudomonas aeruginosa ATCC 9027; assay: Antimicrobial assay I, MIC by OD measurement; assay type: cell-based; conditions: 37° C. for 24 hours, absorbance 620 nm
[8] = system: Staphylococcus aureus ATCC 6538; assay: Antimicrobial assay I, MIC by OD measurement; assay type: cell-based; conditions: 37° C. for 24 hours, absorbance 620 nm
[9] = system: yeast (Saccharomyces cerevisiae); assay: Antimicrobial assay I, yeast assay in RPMI 1640; assay type: cell-based; conditions: RPMI 1640 media
BMKC = assay: Anti-cancer assay, MTT, LD50; assay type: cell-based; conditions: BMKC cloned melanoma line, 24 hours with peptide
Text: (§1) Numbers are LD50 values (μg/mL).

H1299 = assay: Anti-cancer assay, MTT, LD50; assay type: cell-based; conditions: 24 hours with peptide, lung large cell carcinoma
Text: as §1

HeLaS3 = assay: Anti-cancer assay, MTT, LD50; assay type: cell-based; conditions: 24 hours with peptide, cervical carcinoma
Text: as §1

MCF7 = assay: Anti-cancer assay, MTT, LD50; assay type: cell-based; conditions: MCF7 breast adenocarcinoma line, MTT, 24 hours with peptide
Text: as §1

PC3 = assay: Anti-cancer assay, MTT, LD50; assay type: cell-based; conditions: 24 hours with peptide, prostate adenocarcinoma
Text: as §1

SW480 = assay: Anti-cancer assay, MTT, LD50; assay type: cell-based; conditions: SW480 colon adenocarcinoma line, 24 hours with peptide
Text: as §1

P. aeruginosa H374 = assay type: cell-based, Pseudomonas aeruginosa; conditions: for FIC Index: 0.5 or less = synergy
How it was run: (§2)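 Efflux-mutant strains were tested with two-fold serial dilutions of chloramphenicol or nalidixic acid, alone and with peptide held at ¼ of its own MIC.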

P. aeruginosa H774 = assay type: cell-based, Pseudomonas aeruginosa; conditions: P. aeruginosa H744; nalidixic acid + peptide at ¼ MIC; 0.5 or less = synergy
How it was run: as §2

P. aeruginosa = assay type: cell-based, Pseudomonas aeruginosa; conditions: P. aeruginosa H744; MIC of nalidixic acid with peptide at ¼ MIC
How it was run: as §2

[10] = system: hairless rat skin burn wound; assay: In vivo wound healing, TCA chemically induced skin burn wound; conditions: rat model, TCA burn treated by peptide
Text: The hairless rat was chosen as a suitable test model. Female hairless rats of 100 to 150 grams weight and 8 to 12 weeks age were used in the study.
As an alternative, 70% trichloroacetic (TCA) dissolved in 70% ethanol was employed to induce the dermal erosion patches. […] As the chemical burn agent, the TCA treatment inflicted on the rats far less trauma and mortality than occurred with the Phenol model.
The experimental Protocol procedure steps were as follows: • 1. The animal was anesthetized (40 mg/kg Phenobarbital). • 2. Color photographs of the animal's back (with six separate peels) were taken before each treatment and daily thereafter. • 3. Rat skin surface was prepared by wiping with 70% ethanol. Filter paper discs (1.1 cm diameter) were soaked in 70% TCA/ethanol. • 4. The discs were placed on the back of the hairless rat for 30 minutes [6 disks providing for 2 control (no peptide treatment) disks and 4 disks for peels to receive peptide treatment.] • 5. After a 30 minute burn the discs were removed. Twenty four hours later, different peptide solutions (1500 ppm in saline) were applied to four peels, and saline was applied to the two control peels. • 6. Peptide solutions (and saline for the controls) were applied to the six wounds with a soft brush each day thereafter. • 7. It took approximately one month for the wounds to heal (complete skin closure with stabilized epidermis), after which the animal was sacrificed. • 8. The treated skin was harvested, section stained with trichrome, and mounted on slides.
The percentage of wound closure for each peel (six sites) was measured each day until the animal was sacrificed. The percentage closure was determined by measuring on the animal photographs the area of the remaining scab relative to the area of the initial scar after the burn. These measurements were made by digitizing and analyzing the peels using the Sigma Plot ProScan 4 program.
This provided a measure of the post-TCA burn treatment of the inflammatory response in each peel site.
The extent of epidermal thickening (hyperkeratosis) at each site was also determined by measurement with the Sigma Plot program applied to the stained section slides of the various wound areas and the normal untreated skin (control) surrounding the peels. At magnifications of 100× to 320×, the microphotographs of the color slides provided a powerful tool for such quantification of the extent of hyperkeratosis evident in each peel.
Treatment of the section slides with selective stains produced identifiable evidence of the presence of both leukocyte and fibroblast cells in the wound areas. This was also quantified by the Sigma Plot program.
The above described animal model and protocols were employed in the testing of approximately 20 of the peptides listed in Table 48 (and other peptides for comparison) as preferred FLAK peptides for wound healing.

WI38 = conditions: MTT, 24 hours with peptide; normal fibroblast line
[11] = pH 7, Table 26, valine substitution, read-out: Hemolysis RBC LD50
[12] = WI-38 LD50, Table 26, valine substitution

Compound: FAKKLAKLAKKLLAL-NH2 [compound 38]
- Anti-cancer (preferred peptide) (cancer cell lines): X (Preferred anticancer peptides can be selected as having LD50 values of less than or equal to about 25 μg/ml)
- HC50 at 1 h (in vitro [1]; [11]): 350 µg/mL
- CC50 at 24 h (in vitro [2]; [12]): 100 µg/mL
- MBC E. coli A.25922 [3]: 15 µg/mL
- MBC P. aerug A.27853 [4]: 30 µg/mL
- MBC S. aur A.25923 [5]: 15 µg/mL

Compound: FAKKLAKKLAKLL-NH2 [compound 75]
- Anti-cancer (preferred peptide) (cancer cell lines): X (Preferred anticancer peptides can be selected as having LD50 values of less than or equal to about 25 μg/ml)
- MBC E. coli A.25922 [3]: 40 µg/mL
- MBC P. aerug A.27853 [4]: 30 µg/mL
- MBC S. aur A.25923 [5]: >55 µg/mL
- MFC Candida A.10231 [6]: 30 µg/mL

Compound: FAKKALKALKKL-NH2 [compound 47]
- Anti-cancer (preferred peptide) (cancer cell lines): X (Preferred anticancer peptides can be selected as having LD50 values of less than or equal to about 25 μg/ml)
- MBC E. coli A.25922 [3]: >50 µg/mL
- MBC P. aerug A.27853 [4]: >50 µg/mL
- MBC S. aur A.25923 [5]: >50 µg/mL
- MFC Candida A.10231 [6]: >50 µg/mL

Compound: FAKLLAKALKKAL-NH2 [P102, FAKLLAKALKKAL-NH2]
- paerug9027 (MIC) [7]: 10 µg/mL
- staph6538 (MIC) [8]: 5 µg/mL
- yeast (MIC or MFC) [9]: 50 µg/mL
- LD50 BMKC (BMKC): 60 µg/mL
- H1299 LD50 (H1299): 27 µg/mL
- HeLaS3 LD50 (HeLaS3): 43 µg/mL
- LD50 MCF7 (MCF7): 60 µg/mL
- PC3 LD50 (PC3): 66 µg/mL
- LD50 SW480 (SW480): 57 µg/mL
- HC50 at 1 h (in vitro [1]; pH 7, hemolytic assay, concentration at 50% hemolysis, 1 hour at 37° C., read-out: LD50): 500 µg/mL
- MIC Cm-comb. (P. aeruginosa H374; MIC of chloramphenicol with peptide at ¼ MIC): 16 µg/mL
- MIC Nal-comb. (P. aeruginosa H374; MIC of nalidixic acid with peptide at ¼ MIC): 5000 µg/mL
- FIC Index (P. aeruginosa H374; chloramphenicol + peptide at ¼ MIC): 1.25
- FIC Index (P. aeruginosa H374; nalidixic acid + peptide at ¼ MIC, FIC=0.25+MIC comb/MIC alone): 1.25
- FIC Index (P. aeruginosa H774): 1.25
- MIC Nal-comb. (P. aeruginosa): 624 µg/mL
- Epidermal thickening [10]: 50 % of control (TCA only)
- Fibroblast cells in test area [10]: 220 % of normal skin
- Inflammatory response area [10]: 27 % of healed scar
- Leukocyte cells in test area [10]: 370 % of normal skin
- Wound closure ([10]; 26 days): 96.7 % of initial wound
- WI38 LD50 (WI38): 73 µg/mL
- CC50 at 24 h (in vitro [2]; LD50 WI38, WI38 normal lung fibroblast line, MTT, 24 hours with peptide): 73 µg/mL

Compound: CC[C@H](C)[C@H](N)C(=O)N[C@@H](CC(C)C)C(=O)N1CCC[C@H]1C(=O)N[C@@H](Cc1c[nH]c2ccccc12)C(=O)N[C@@H](CCCCN)C(=O)N[C@@H](Cc1c[nH]c2ccccc12)C(=O)N1CCC[C@H]1C(=O)N[C@@H](Cc1c[nH]c2ccccc12)C(=O)N[C@@H](Cc1c[nH]c2ccccc12)C(=O)N1CCC[C@H]1C(=O)N[C@@H](Cc1c[nH]c2ccccc12)C(=O)N[C@@H](CCCNC(=N)N)C(=O)N[C@@H](CCCNC(=N)N)C(=O)O [compound 91]
- Anti-cancer (preferred peptide) (cancer cell lines): X (Preferred anticancer peptides can be selected as having LD50 values of less than or equal to about 25 μg/ml)

Compound: VAKALKALLKALKAL-NH2 [compound 501]
- Anti-cancer (preferred peptide) (cancer cell lines): X (Preferred anticancer peptides can be selected as having LD50 values of less than or equal to about 25 μg/ml)
- HC50 at 1 h (in vitro [1]; [11]): 15 µg/mL
- CC50 at 24 h (in vitro [2]; [12]): 26 µg/mL

Compound: FALAAKALKKLAKKLKKLAKKAL-NH2 [compound 23]
- Anti-cancer (preferred peptide) (cancer cell lines): X (Preferred anticancer peptides can be selected as having LD50 values of less than or equal to about 25 μg/ml)
- MBC E. coli A.25922 [3]: 15 µg/mL
- MBC P. aerug A.27853 [4]: 25 µg/mL
- MBC S. aur A.25923 [5]: 30 µg/mL
- MFC Candida A.10231 [6]: >50 µg/mL

Compound: FAKKLAKLALKLAKL-NH2 [compound 44]
- Anti-cancer (preferred peptide) (cancer cell lines): X (Preferred anticancer peptides can be selected as having LD50 values of less than or equal to about 25 μg/ml)
- MBC E. coli A.25922 [3]: 10 µg/mL
- MBC P. aerug A.27853 [4]: 55 µg/mL
- MBC S. aur A.25923 [5]: 30 µg/mL
- MFC Candida A.10231 [6]: >50 µg/mL

Compound: FAKFLAKFLKKAL-NH2 [compound 111]
- Anti-cancer (preferred peptide) (cancer cell lines): X (Preferred anticancer peptides can be selected as having LD50 values of less than or equal to about 25 μg/ml)
- HC50 at 1 h (in vitro [1]; [11]): 5 µg/mL
- CC50 at 24 h (in vitro [2]; [12]): 25 µg/mL
- MBC E. coli A.25922 [3]: 30 µg/mL
- MBC S. aur A.25923 [5]: 40 µg/mL
- MFC Candida A.10231 [6]: INACT

Compound: FAKLLALALKLKL-NH2 [compound 94]
- Anti-cancer (preferred peptide) (cancer cell lines): X (Preferred anticancer peptides can be selected as having LD50 values of less than or equal to about 25 μg/ml)
- MBC E. coli A.25922 [3]: >50 µg/mL
- MBC P. aerug A.27853 [4]: >50 µg/mL
- MBC S. aur A.25923 [5]: >50 µg/mL
- MFC Candida A.10231 [6]: >50 µg/mL

Compound: KWKLFKKALKKLKKALKKAL-NH2 [compound 104]
- Anti-cancer (preferred peptide) (cancer cell lines): X (Preferred anticancer peptides can be selected as having LD50 values of less than or equal to about 25 μg/ml)

Compound: CC(C)C[C@H](NC(=O)[C@H](C)NC(=O)[C@H](CCCCN)NC(=O)[C@H](CCCCN)NC(=O)[C@H](CC(C)C)NC(=O)[C@H](C)NC(=O)[C@H](CCCCN)NC(=O)[C@H](CCCCN)NC(=O)[C@H](CC(C)C)NC(=O)[C@@H](CCCCN)NC(=O)[C@@H](CCCCN)NC(=O)[C@H](CC(C)C)NC(=O)[C@H](C)NC(=O)[C@H](CCCCN)NC(=O)[C@H](CCCCN)NC(=O)[C@H](CC(C)C)NC(=O)[C@H](C)NC(=O)[C@H](CCCCN)NC(=O)[C@H](CC(C)C)NC(=O)[C@H](C)NC(=O)[C@H](CC(C)C)NC(=O)[C@H](C)NC(=O)[C@@H](N)Cc1ccccc1)C(=O)O [compound 37] (H-FALALKALKKAL[dK][dK]LKKALKKAL-OH; N-terminus assumed)
- Anti-cancer (preferred peptide) (cancer cell lines): X (Preferred anticancer peptides can be selected as having LD50 values of less than or equal to about 25 μg/ml)
- MBC E. coli A.25922 [3]: 8 µg/mL (≈ 3.15 µM)
- MBC P. aerug A.27853 [4]: 8 µg/mL (≈ 3.15 µM)
- MBC S. aur A.25923 [5]: 40 µg/mL (≈ 15.8 µM)
- MFC Candida A.10231 [6]: >50 µg/mL

Compound: KWKLFKKKTKLFKKFAKKLAKKL-OH [compound 81]
- Anti-cancer (preferred peptide) (cancer cell lines): X (Preferred anticancer peptides can be selected as having LD50 values of less than or equal to about 25 μg/ml)

Compound: VAKLLAKALKKLL-NH2 [compound 506]
- Anti-cancer (preferred peptide) (cancer cell lines): X (Preferred anticancer peptides can be selected as having LD50 values of less than or equal to about 25 μg/ml)
- HC50 at 1 h (in vitro [1]; [11]): 120 µg/mL
- CC50 at 24 h (in vitro [2]; [12]): 75 µg/mL
